Measured values reported in patent US20070078373A1, “PULSATILE DELIVERY OF GONADOTROPIN-RELEASING HORMONE FROM A PRE-LOADED INTEGRATED ELECTROTRANSPORT PATCH” (Vyteris, Inc., priority 2005, published 2007).
Counter-ions that a name gives are not always drawn.

Tests used:
[1] = parameters: species or system Yorkshire pigs; details: pig, in vivo
Method: Six prepubescent female Yorkshire pigs (numbered from 7-12) were used in this set of studies. Each animal received two iontophoretic treatments. A first set of three animals received 50 mg/mL, drug concentration using five 8-min pulses (condition #3) and a week later received the same concentration using eight 5-min pulses (condition #5). A second set of three animals received 25 mg/mL drug concentration using five 8-min pulses (condition #4) and a week later received the same concentration using eight 5-min pulses (condition #6). The five 8-min pulse experiments were performed first in the sequence. During the span of the study the animal weights ranged from approximately 18-33 kg.
The animals were prepared as described in Example 1. Inotophoretic hydrogel patches prepared according to Patch Fabrication Platform I (5 cm^2 active area) were used in these studies. The patches were loaded with GnRH (HCl) solution to provide final concentration of either 25 mg/mL GnRH (HC l) or 50 mg/mL GnRH (HCl) in the patch. The pH of the gel surface was measured to be 5.0±0.5. The patches were placed on the back of the animal just off the midline section. The controller, as described in Example 1, was used. One patch each was used throughout the entire delivery period for conditions 3-5. For condition #6, the patch was replaced with a fresh patch after pulse 5. The experimental conditions are summarized in Table K. Example 2 utilized current delivery profiles comprising five cycles of eight minute pulses each having a current of 1.2 mA for conditions #3 and #4; and eight cycles of five minute pulses each having a current of 1.2 mA for conditions #5 and #6. Each profile had rest times of 90 minutes between pulses.
Blood samples were drawn from a jugular catheter at times as disclosed in Table L, and treated according to the protocol set forth in Example 1.

[2] = Pulsatile transdermal iontophoresis of GnRH in pigs, plasma PK (Example 1); type: in vivo, Yorkshire pigs; details: for plasma concentrations: condition #2 (2 mg/mL patch)
Method: (§1) Six prepubescent female Yorkshire pigs were used for this Example. A crossover design was used whereby each animal received both subcutaneous (SC) and iontophoretic treatments. Subcutaneous and iontophoresis experiments were spaced two weeks apart to meet acceptable animal blood draw limits. The subcutaneous injection experiments were performed first in the sequence. During the two week study the animal weights ranged from 15-32 kg.
The animal hair were clipped the night before the experiment. Prior to applying patches, a skin site free of obvious cuts and scrapes was selected. The selected skin site was wiped clean with warm water and an alcohol-loaded gauze pad and patted dry.
Iontophoretic hydrogel patches prepared according to Patch Fabrication Platform I (5 cm^2 active area) were used in these studies. The patches were loaded with GnRH (HCl) solution to provide final concentration of either 10 mg/mL, GnRH (HC 1) or 2 mg/mL GnRH (HCl) in the patch. The pH of the gel surface was from about 5 to about 5.5.
(§2) All animals were placed in a sling under general propofol anesthesia and jugular, ear vein and arterial catheters placed percutaneously. For subcutaneous injection studies, a venous catheter was placed against the lower abdominal wall of the animal and 20 μg of drug was injected at 90-min intervals (total 5 dosing cycles). Each drug injection was followed by saline flush. The subcutaneous injection study in each animal was followed by iontophoresis administration in the same animal two weeks later. The iontophoresis experiments also involved five dosing cycles at 90-minute intervals. The drug loaded patches were placed on the back of the animal just off the midline section.
A laboratory controller was used as a constant current source. The controller is a battery operated electrotransport controller and delivers a preprogrammed current density profile for experimental studies. In addition, the controller measures the voltage across and the current through an electrotransport patch during drug delivery. The accuracy of the delivered current is ±1% of full-scale. The controller has a maximum voltage of 35 V and can take readings once per second for up to an hour. The accuracy of the recorded current is ±1% of full-scale. The accuracy of the recorded voltage is 0.8 V Max. There are no moving parts on the controller. Infrared transmission of the delivery profile and data retrieval to a computer ensures there are no disturbances during the treatment of a subject.
Example 1 utilized a current delivery profile comprising five cycles of eight minute pulses each having a current of 1.2 mA, with rest times of 90 minutes between pulses.
(§3) Blood samples were drawn from the jugular catheter into pre-chilled 3 mL vacutainer tubes using the following protocol. The tubes contained EDTA (1 mg/mL of blood) and Aprotinin (500 KIU/mL, of blood). A 2 mL, flush volume of blood was drawn followed by a 3 mL sample. The blood samples were withdrawn as outlined in Table G below. The tubes were centrifuged within 15 min of blood collection at 1600 rpm for 15 min at 4° C. The separated plasma was split into two (approximately equal volume) 2 mL tubes and frozen on dry ice. Samples were stored at −70° C. until shipment. The samples were analyzed using an I^125 radio labeled immnunoassay.
All experimental animals were allowed to recover from anesthesia after sutaneous treatment. The jugular catheter was left over night and removed after 24 hour blood draw was complete. Immediately following the 24 hour iontophoresis blood draw, animals were euthanized. Animal 1 died seven days after subcutaneous treatment. Animals 2, 3, and 4 received iontophoresis under condition #1 and animals 5 and 6 received iontophoresis under condition #2.

[3] = in vivo; parameters: species or system Yorkshire pigs; details: pig, sc
Method: as §1
The subcutaneous dosing solutions of concentration 200 μg/mL and 400 μg/mL, were prepared in pH 5.0 water (pH of maximum stability), Pigs 1 and 2 received 50 μl of 400 μg/mL, solution, while pigs 3-6 received 100 μl of 200 μg/mL, solution for each of the 5 doses.
as §2, §3

[4] = parameters: species or system Yorkshire pigs; details: pig, in vivo; remark: listed apart in the source
Method: Three prepubescent female Yorkshire pigs (numbered 13-15) were used in this Example. Each animal received one iontophoretic treatment for eight 90 minute cycles and a ninth cycle with subcutaneous (“SC”) dosing for comparison. The ionotophoretic devices were prepared according to Patch Fabrication Platform I (5 cm^2 active area). The patches were loaded with GnRH (HCl) solution to provide final concentration of 25 mg/mL, GnRH. The pH of the gel surface was measured to be 5.0±0.5. The patches were stored at 5° C. at all times except during travel to the study site. The SC dosing solution used in animal 13 was prepared 4 days before use and stored at room temperature (“RT”). The SC dosing solution used in animal 14 was prepared 6 days before use and stored mainly at RT. The SC dosing solution used in animal 15 was prepared 1 day before use and stored at RT. During the study, the animal weights ranged from approximately 15-30 kg. […] The animals were prepared as described in Example 1. The drug loaded patches were placed on the back of the animal just off the midline section. One patch each was used throughout the eight delivery pulses. The controller, as described in Example 1, was used as a constant current source. Blood samples were drawn from a jugular catheter at times as disclosed in Table P, and treated according to the analytical protocol set forth in Example 1.

[5] = condition #1, animal weight normalized, pulses 1-5

CC(C)C[C@H](NC(=O)CNC(=O)[C@H](Cc1ccc(O)cc1)NC(=O)[C@H](CO)NC(=O)[C@H](Cc1c[nH]c2ccccc12)NC(=O)[C@H](Cc1cnc[nH]1)NC(=O)[C@@H]1CCC(=O)N1)C(=O)N[C@@H](CCCNC(=N)N)C(=O)N1CCC[C@H]1C(=O)NCC(N)=O [GnRH, gonadorelin hydrochloride]
Mean AUC, less than for 10 mg/mL drug concentration and 8-min pulses (Example 1) [1]: 25% | Mean Cmax, less than for 10 mg/mL drug concentration and 8-min pulses (Example 1) [1]: 25% | drug delivery, less compared with 10 mg/mL drug concentration and 8-minute pulses [1]: 25% | ratio of the mean CV for AUC between iontophoretic and subcutaneous drug delivery ([2]; condition #1, all pulses): 1.9 | ratio of the mean CV for Cmax between iontophoretic and subcutaneous drug delivery ([2]; condition #1, all pulses): 2.0 | Mean coefficient of variation (for AUC) for iontophoretic drug delivery [2, 5]: 35% | mean CV (for Cmax) for iontophoretic drug delivery [2, 5]: 40% | mean CV (for AUC) for iontophoretic drug delivery ([2]; condition #1, pulse 1 excluded): 15% | mean CV (for Cmax) for iontophoretic drug delivery ([2]; condition #1, pulse 1 excluded): 22% | ratio of the mean CV for AUC between iontophoretic and subcutaneous drug delivery ([2]; condition #1, pulse 1 excluded): 0.83 | ratio of the mean CV for Cmax between iontophoretic and subcutaneous drug delivery ([2]; condition #1, pulse 1 excluded): 1.1 | percent difference between iontophoresis and subcutaneous means, of the subcutaneous AUC ([2]; condition #1 vs subcutaneous 20 μg dose, animal weight normalized): 47% | percent difference between iontophoresis and subcutaneous Cmax means, of the subcutaneous mean Cmax ([2]; condition #1 vs subcutaneous, animal weight normalized): 32% | plasma concentrations ([2]; animal 5, first 3 pulses): below assay limit of detection | plasma concentrations ([2]; animal 6, first pulse): below assay limit of detection | Mean AUC for pulses 4 and 5, fold less than iontophoresis condition #1 ([2]; condition #2 vs condition #1): 5.6 fold | Mean Cmax for pulses 4 and 5, fold less than iontophoresis condition #1 ([2]; condition #2 vs condition #1): 4.6 fold | Tmax ([2]; female, Yorkshire, pig, in vivo, Tmax): 20 min | AUC ([3]; female, Yorkshire, 20 ug, Subcut. AUC): 0.742 ng·h/mL | Tmax ([3]; female, Yorkshire, Subcut Tmax): 19 min | Mean CV (for AUC) for subcutaneous drug delivery ([3]; 20 ug): 18% | Mean CV (for Cmax) for subcutaneous drug delivery ([3]; 20 ug): 20% | Tmax coefficient of variation over pulses 2-8 [4]: 9%
